Source: ChEMBL document CHEMBL1250430, “Synthesis, semipreparative HPLC separation, biological evaluation, and 3D-QSAR of hydrazothiazole derivatives as human monoamine oxidase B inhibitors” (Bioorg Med Chem, 2010)
“And” between values parts separate entries of the source, which are not always exact repeats. Equal values may be shown once.

These compounds were tested against T1, Amine oxidase [flavin-containing] A (Homo sapiens, UniProt P21397) (assay: not given). Details: bti-tn-5b1-4.
T1 sequence (P21397 whole entry): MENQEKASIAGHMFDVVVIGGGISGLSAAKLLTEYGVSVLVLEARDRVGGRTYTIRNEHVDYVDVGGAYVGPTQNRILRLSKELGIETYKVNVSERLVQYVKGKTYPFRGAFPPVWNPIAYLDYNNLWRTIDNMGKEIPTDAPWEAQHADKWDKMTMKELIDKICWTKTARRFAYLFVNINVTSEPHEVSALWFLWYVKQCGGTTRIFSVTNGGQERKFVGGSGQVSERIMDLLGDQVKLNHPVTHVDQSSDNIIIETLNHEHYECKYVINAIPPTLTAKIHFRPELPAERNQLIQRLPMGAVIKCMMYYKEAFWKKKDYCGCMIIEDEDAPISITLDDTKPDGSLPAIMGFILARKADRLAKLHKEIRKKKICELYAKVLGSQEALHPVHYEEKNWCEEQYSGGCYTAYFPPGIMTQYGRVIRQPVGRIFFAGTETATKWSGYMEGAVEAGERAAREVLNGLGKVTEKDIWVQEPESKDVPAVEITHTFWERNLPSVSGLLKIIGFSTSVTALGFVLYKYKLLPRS

Work on `CC1CCC(=NNc2nc(-c3ccc(Cl)cc3Cl)cs2)CC1` (centres undefined) yielded an IC50 of 81.5 µM.

The compounds below were run against T1, Amine oxidase [flavin-containing] A (assay: biochemical). Details: not given.

For `Fc1ccc(-c2csc(NN=C3CCCC3)n2)c(F)c1`, the IC50 was 2.29 µM and 2.32 µM.

Compared with `O=[N+]([O-])c1ccc(-c2csc(NN=C3CCCCCC3)n2)cc1`, `O=[N+]([O-])c1ccc(-c2csc(NN=C3CCCC3)n2)cc1` is 52-fold lower in IC50: 17.9 µM for the first, 0.344 µM for the second.

Compared with `Fc1ccc(-c2csc(NN=C3CCCCC3)n2)c(F)c1`, `Fc1ccc(-c2csc(NN=C3CCCCCC3)n2)c(F)c1` is 6.3-fold lower in IC50: 45.8 µM for the first, 7.23 µM for the second.

`Clc1ccc(-c2csc(NN=C3CCCCCC3)n2)c(Cl)c1` and `Clc1ccc(-c2csc(NN=C3CCCC3)n2)c(Cl)c1` are within 1.5-fold of each other in IC50: 59.3 µM for the first, 54.5 µM for the second.

Work on `N#Cc1ccc(-c2csc(NN=C3CCCC3)n2)cc1` yielded an IC50 of 0.644 µM.
